Here are results for one molecule from patent US12577247B2 (BUGWORKS RESEARCH, INC., priority 2021, dated 2026).

The assay deals with CT-26 syngeneic colon cancer. Put plainly: In vivo efficacy on CT-26 syngeneic colon cancer mice model. Also noted: species or system Balb/c mice. The settings on record: PO, TID; for Decrease in tumor volume: by day 22. The method, then:
CT-26 syngeneic model of colon cancer in BALB/c is an established model and has been reported widely in literature for screening of compounds in efficacy studies for immune-oncology therapeutics.
CT-26 Cell line expansion and sub-culturing: CT26 (CT26·WT, ATCC® CRL-2638) is an N-nitroso-N-methylurethane-(NNMU) induced, undifferentiated colon carcinoma cell line derived from Mus musculus, mouse colon tissue. Cells were cultured using standard techniques in RPMI 1640 with 10% FBS and 1× penicillin—streptomycin solution at 37° C. with 5% CO2 in a suitable incubator. Cell density was determined using a hemocytometer upon harvest and the cells were prepared in 100 μL of cold PBS in a microfuge tube and kept on ice until use for inoculations.
Mice: All animal studies were conducted in accordance with an Institutional Animal Care and Use Committee. 6- to 8-week-old Balb/c mice were typically housed in sterilized suspended standard, polysulfone cages, with stainless steel top grills having facilities for holding pelleted food and drinking water in polycarbonate bottles with stainless steel sipper tubes and environment enrichment objects in the vivarium for two weeks prior to tumor cell injection. The same conditions were maintained throughout the subsequent tumor engraftment and treatment evaluation.
Tumor engraftment: All animals were inoculated with 5×10^5/mouse in 100 μL subcutaneously in the lower right flank. Tumor growth was monitored twice a week from Day 4 onwards using a calibrated digital vernier caliper and the tumor volume calculated using the formula, tumor volume (mm3)=length×(width) 2/2. Once tumor volume reaches 100±50 mm^3 on Day 12, all animals were randomized into respective treatment groups as per study plan. See Table 1 for details regarding the setup and dosing of animals. Tumor volume at the time of randomization was 90 mm^3 There was no statistical significance in tumor volume at the time of treatment initiation. Post randomization, animals were treated with the test substance for 21 days. The average tumor volume/size in the treatment group allowed to reach up to 2500 mm^3, beyond this tumor size the animals to be sacrificed humanely as per general guidelines.
Formulation and administration: Formulations were prepared with the components listed in Table 11 every day and mixed well before dosing each time and administered orally. The anti PD-1 antibody was administered via the intraperitoneal route.
Data is represented as Mean±SEM n=4-10, *p<0.05 Vs Vehicle, One-Way ANOVA followed by Dunnett's multiple comparison test. […] Significant decrease in tumor volume was observed on Day 18 and Day 22 compared to vehicle treatment.

Turning to `Cc1cccc(CCNc2nc3c(C)c(C)nn3c(N)c2C#N)n1` [Example 13, 7-amino-5-((2-(6-methylpyridin-2-yl)ethyl)amino)-2,3-dimethylpyrazolo[1,5-a]pyrimidine-6-carbonitrile], the “Change in tumor volume” value (1 mg/kg, vs vehicle) is recorded as “did not show significant change in tumor volume”. The “Decrease in tumor volume” value reads like this: (3 mg/kg) 35%; (10 mg/kg) 35%; (30 mg/kg) 48%.
